Tested on: Human Ito cells (LI90)
Experiment: Test for inhibition of collagen synthesis (3H proline labeling, hTGF β-1 treated cells)
Type: cell-based
Conditions: cultured with test compound in MEM containing 10 PM hTGF β-1 and 2% PDS for 16 hours, 3H proline labeling 24 hours, read-out: IC50 (μM), concentration at which the collagen synthesis is inhibited by 50% (T/C = 0.5)
Protocol: The pyridine derivatives (test compounds) obtained in Examples 1-2, 9-10, 21, 25, 29, 33-37, 39, 42, 44 and 46 were subjected to the following collagen synthesis test.
Test for Inhibition of Collagen Synthesis
Plasma obtained by centrifugation of rabbit blood was centrifuged again to remove platelets, and dialysis of the resulting supernatant was carried out against a Phosphate Buffered Saline (PBS) containing 0.01% (w/v) calcium chloride and 0.01% (w/v) magnesium chloride. Then, centrifugation was carried out to remove the residue and the resulting supernatant was immobilized at 56° C. for 30 minutes. The immobilized supernatant was sterilized by using a filter (0.22 μm) to prepare Plasma Derived Serum (PDS).
Human Ito cells (LI90) were plated in DULBECCO's modified eagle medium (DMEM) containing 10% fetal bovine serum and cultured in an incubator in the presence of 5% carbon dioxide (CO2) for 24 hours at 37° C., and then washed with PBS and cultured in Eagle's minimum essential medium (MEM) containing 2% PDS for additional 3 days. The cultured cells were washed with PBS and cultured together with the test compounds in MEM containing 10 PM hTGF (transforming growth factor) β-1 (containing 2% PDS based on the total amount of MEM) for 16 hours. Then, the cultured L190 was washed with PBS and RI (radioisotope) labeling was carried out in MEM containing ^3H proline as a radioactive labeled compound and 0.25 mM ascorbic acid for 24 hours. This cultured supernatant was precipitated by using trichloroacetic acid (TCA), and then the radioactivity in an […] fraction was measured and the resulting measured value was taken as collagen synthesis activity.
By comparing the radioactivity in the cultured supernatant containing the test compound with the radioactivity in the cultured supernatant containing no test compound (control), the collagen synthesis inhibition activity (T/C) was calculated by the following equation:
T/C=(radioactivity in cultured supernatant containing test compound)/(radioactivity in cultured supernatant of control).
IC50 was determined as the concentration (μM) at which the collagen systhesis can be inhibited by 50% (concentration of the test compound wherein C50=T/C corresponds to 0.5).

Compound | IC50 [µM]
O=C(Nc1ccc(Oc2cccc3c2CCC3=O)nc1)c1ccc(C(F)(F)F)cc1 [Example 2, N1-{6-[(1-oxo-2,3-dihydro-1H-inden-4-yl)oxy]-3-pyridinyl}-4-(trifluoromethyl)benzamide] | 2.9
CC(O)c1ccc(Oc2ccc(NC(=O)c3ccc(Cl)c(Cl)c3)cn2)cc1 (stereo not shown) [Example 36, 3,4-dichloro-N1-{6-[4-(1-hydroxyethyl)phenoxy]-3-pyridinyl}benzamide] | 3.72
O=C(Nc1ccc(Oc2cccc3c2CC=C3)nc1)c1ccc(Cl)c(Cl)c1 [Example 35, 3,4-dichloro-N1-{6-[(1H-inden-7-yl)oxy]-3-pyridinyl}benzamide] | 2.43
CC(=O)c1ccc(Oc2ccc(NC(=O)c3ccc(Cl)c(Cl)c3)cn2)cc1C [Example 21, N1-[6-(4-acetyl-3-methylphenoxy)-3-pyridinyl]-3,4-dichlorobenzamide] | 2.92
O=C(Nc1ccc(Cl)c(Cl)c1)c1ccc(Oc2cccc3c2CCCC3=O)nc1 [Example 42, N3-(3,4-dichlorophenyl)-6-[(5-oxo-5,6,7,8-tetrahydro-1-naphthalenyl)oxy]nicotinamide] | 2.29
O=C(Nc1ccc(Cl)c(Cl)c1)c1ccc(Oc2cccc3c2CCC3=O)nc1 [Example 37, N3-(3,4-dichlorophenyl)-6-[(1-oxo-2,3-dihydro-1H-inden-4-yl)oxy]nicotinamide] | 2.52
O=C(Nc1ccc(Oc2cccc3c2CCCC3=O)nc1)c1ccc(Cl)c(Cl)c1 [Example 9, 3,4-dichloro-N1-{6-[(5-oxo-5,6,7,8-tetrahydro-1-naphthalenyl)oxy]-3-pyridinyl}benzamide] | 2.34
O=C(Nc1ccc(Oc2ccc3c(c2)C(=O)CCCC3)nc1)c1ccc(Cl)c(Cl)c1 [Example 10] | 2.6
CC(=O)OC1=CCc2c(Oc3ccc(NC(=O)c4ccc(Cl)c(Cl)c4)cn3)cccc21 [Example 46, N1-{6-[(3-acetoxy-1H-inden-7-yl)oxy]-3-pyridinyl}-3,4-dichlorobenzamide] | 1.12
O=C(Nc1ccc(Oc2cccc3c2CCC3)nc1)c1ccc(Cl)c(Cl)c1 [Example 25, 3,4-dichloro-N1-(6-[(2,3-dihydro-1H-inden-4-yl)oxy]-3-pyridinyl}benzamide] | 2.7
CC1(c2ccc(Oc3ccc(NC(=O)c4ccc(Cl)c(Cl)c4)cn3)cc2)OCCO1 [Example 33, 3,4-dichloro-N1-{6-[4-(2-methyl-1,3-dioxolane-2-yl)phenoxy]-3-pyridinyl}benzamide] | 3.88

More lines, in order of falling IC50, values ahead:

IC50 [µM] | Compound
2.15 | O=C(Nc1ccc(Oc2cccc3c2CCC3O)nc1)c1ccc(Cl)c(Cl)c1 (stereo not shown) [Example 34, 3,4-dichloro-N1-{6-[(1-hydroxy-2,3-dihydro-1H-inden-4-yl)oxy]-3-pyridinyl}benzamide]
2.14 | O=C(Nc1ccc(Oc2cccc3c2CCC3=O)nc1)c1ccc(Cl)c(Cl)c1 [Example 1, 3,4-dichloro-N1-{6-[(1-oxo-2,3-dihydro-1H-inden-4-yl)oxy]-3-pyridinyl}benzamide]
1.58 | Cc1cccc(Oc2ccc(NC(=O)c3ccc(Cl)c(Cl)c3)cn2)c1C [Example 29, 3,4-dichloro-N1-[6-(2,3-dimethylphenoxy)-3-pyridinyl]benzamide]
0.92 | CC(=O)c1ccc(Oc2ccc(C(=O)Nc3ccc(C(F)(F)F)cc3)cn2)cc1 [Example 44, 6-(4-acetylphenoxy)-N3-[4-(trifluoromethyl)phenyl]nicotinamide]
0.55 | O=C(Nc1ccc(C(F)(F)F)cc1)c1ccc(Oc2cccc3c2CCC3=O)nc1 [Example 39, 6-[(1-oxo-2,3-dihydro-1H-inden-4-yl)oxy]-N3-[4-(trifluoromethyl)phenyl]nicotinamide]

— patent US6511995B1, “Pyridine derivative and pharmaceutical containing the same” (Otsuka Pharmaceutical Co., Ltd., priority 1998, dated 2003)
